Measured values published in patent US20080227798A1, “POLYMORPHS OF SUCCINATE SALT OF 2-[6-(3-AMINO-PIPERIDIN-1-YL)-3-METHYL-2,4-DIOXO-3,4-DIHYDRO-2H-PYRIMIDIN-1-YLMETHY]-4-FLUOR-BENZONITRILE AND METHODS OF USE THEREFOR” (priority 2006, published 2008).
Entries after “also recorded” stand apart in the source; their conditions may differ.

How the values were obtained:
Assay type in all cases: physicochemical
[1] = Thermogravimetric analysis (TGA)
Experimental: Thermogravimetric (TG) analyses were performed using a TA Instruments 2950 thermogravimetric analyzer. Each sample was placed in an aluminum sample pan and inserted into the TG furnace. The furnace was first equilibrated at 25° C., then heated under nitrogen at a rate of 10° C./min, up to a final temperature of 350° C. Nickel and Alumel™ were used as the calibration standards.

[2] = Thermogravimetric-infrared (TG-IR) analysis
Source text: Thermogravimetric infrared (TG-IR) analyses were acquired on a TA Instruments thermogravimetric (TG) analyzer model 2050 interfaced to a Magna 560® Fourier transform infrared (FT-IR) spectrophotometer (Thermo Nicolet) equipped with an Ever-Glo mid/far IR source, a potassium bromide (KBr) beamsplitter, and a deuterated triglycine sulfate (DTGS) detector. The TG instrument was operated under a flow of helium at 90 and 10 cc/min for the purge and balance, respectively. Each sample was placed in a platinum sample pan, inserted into the TG furnace, accurately weighed by the instrument, and the furnace was heated from ambient temperature to 250° C. at a rate of 20° C./min. The TG instrument was started first, immediately followed by the FT-IR instrument. Each IR spectrum represents 32 co-added scans collected at a spectral resolution of 4 cm^−1. A background scan was collected before the beginning of the experiment. Wavelength calibration was performed using polystyrene. The TG calibration standards were nickel and Alumel™. Volatiles were identified from a search of the High Resolution Nicolet TGA Vapor Phase spectral library.

Dehydration experiment = experiment: Dehydration experiment
Source text: Hydrated samples of Compound I were dehydrated at ambient conditions (2 days) and in an ambient temperature vacuum oven (1 day). The solids were collected and analyzed by XRPD for form identification.
Aliquots of Form A+B of Compound I were stored at ambient condition for two days and in an ambient temperature vacuum over for one day. The solids were collected and analyzed by XRPD and confirmed to be Form A.

[3] = Slurry interconversion studies
Source text: An excess amount of Compound I was slurried in test solvent on a rotating wheel for approximately 5 or 7 days. The solids were typically collected by vacuum filtration, air dried in the hood, and analyzed by XRPD for form identification.
Samples of mixture of Form A and Form B of Compound I were slurried in water and THF:water (9:1), for up to 13 days.

[4] = Relative humidity stressing experiments
Source text: Samples of Compound I were placed uncovered in approximately 58%, 88%, and 97% relative humidity jars. The samples were stored in the jars for approximately 8 days. The solids were collected and analyzed by XRPD for form identification. […] An aliquot of a mixture of Form A+B was stressed at 88% relative humidity for 23 days. Amorphous Form was stressed at 58% and 88% relative humidity for 23 days.

[5] = Moisture sorption/desorption analysis
Experimental: Moisture sorption/desorption data were collected on a VTI SGA-100 Vapor Sorption Analyzer. Sorption and desorption data were collected over a range of 5% to 95% relative humidity (RH) at 10% RH intervals under a nitrogen purge. Samples were not dried prior to analysis. Equilibrium criteria used for analysis were less than 0.0100% weight change in 5 minutes, with a maximum equilibration time of 3 hours if the weight criterion was not met. Data were not corrected for the initial moisture content of the samples. NaCl and PVP were used as calibration standards. Moisture sorption and desorption study was conducted on a sample of Form A+B. The sample was prepared by crashed cooling crystallization (Example 3, section A.6) of the polymorphic forms from a ethanol:water (95:5) solution of Compound I. The moisture sorption and desorption study was conducted according to the procedures outlined in Example 3, section B.10. The data collected is plotted in FIG. 13 and summarized in Table L. Moisture sorption and desorption study was conducted on a sample of Form E. The sample was prepared by solvent/antisolvent crystallization (Example 3, section A.7) by the addition of acetonitrile to Compound I in water. The moisture sorption and desorption study was conducted according to the procedures outlined in Example 3, section B.10. The data collected is plotted in FIG. 23 and summarized in Table M. Moisture sorption and desorption study was conducted on a sample of Amorphous Form. The sample was prepared by lyophilolization of a solution of Compound I in water (Example 3, section A.9). The moisture sorption and desorption study was conducted according to the procedures outlined in Example 3, section B.10.

With `Cn1c(=O)cc(N2CCC[C@@H](N)C2)n(Cc2cc(F)ccc2C#N)c1=O.O=C(O)CCC(=O)O` [Form D] the “TGA total weight loss” value ([1]; equilibration plus 25° C. to 85° C.) was “approximately 30%”, the “water content consistent with total weight loss” value ([1]; from about 30% total weight loss) was “approximately 11 moles of water” and the TG-IR weight loss ([2]; heated from 20° C. to 100° C., evaporation of water) was 24.0% weight loss when heated from.

With `Cn1c(=O)cc(N2CCC[C@@H](N)C2)n(Cc2cc(F)ccc2C#N)c1=O.O=C(O)CCC(=O)O` [Form A+B] the “form by XRPD after dehydration” value (Dehydration experiment; ambient conditions, two days) was “converted to Form A”, the “form by XRPD after dehydration” value (Dehydration experiment; vacuum oven at ambient temperature, one day) was “converted to Form A” and the “form by XRPD after slurry” value ([3]; slurried in water and THF:water (9:1), up to 13 days) was “either Form A or Form A+B”. The form after slurry ([3]; slurried in water, water removed by evaporation) was “converted to Form A”, the “form by XRPD after relative humidity stressing” value ([4]; 58% relative humidity, 23 days) was “Form A” and the “form by XRPD after relative humidity stressing” value ([4]; 88% relative humidity, 23 days) was “Form A”. For the same compound, the “reversible weight change on sorption/desorption” value [5] was 1.2%, the “weight gain on sorption” value ([5]; 5-95% RH) was 1.2% weight gain from 5-95% RH and the “weight lost on desorption” value ([5]; 95-5% RH) was 1.2% weight lost from 95-5% RH. It also gave a Weight % chg ([5]; Samp RH 4.83%, 25.10° C., elapsed 445.9 min (desorption)) of −0.658%, a Weight % chg ([5]; Samp RH 5.14%, 25.05° C., elapsed 91.5 min) of −0.665% and a Weight % chg ([5]; Samp RH 14.88%, 25.04° C., elapsed 137.8 min (sorption)) of −0.184%. The Weight % chg ([5]; Samp RH 14.96%, 25.09° C., elapsed 359.7 min (desorption)) was 0.020%, the Weight % chg ([5]; Samp RH 25.03%, 25.07° C., elapsed 165.5 min (sorption)) was 0.004% and the Weight % chg ([5]; Samp RH 25.11%, 25.09° C., elapsed 338.5 min (desorption)) was 0.149%. The Weight % chg ([5]; Samp RH 34.82%, 25.06° C., elapsed 179.7 min (sorption)) was 0.098%, the Weight % chg ([5]; Samp RH 34.92%, 25.06° C., elapsed 319.3 min (desorption)) was 0.237% and the Weight % chg ([5]; Samp RH 44.88%, 25.06° C., elapsed 196.2 min (sorption)) was 0.208%. The Weight % chg ([5]; Samp RH 45.07%, 25.07° C., elapsed 307.3 min (desorption)) was 0.299%, the Weight % chg ([5]; Samp RH 54.95%, 25.06° C., elapsed 208.7 min (sorption)) was 0.284% and the Weight % chg ([5]; Samp RH 55.02%, 25.07° C., elapsed 296.5 min (desorption)) was 0.353%. It also gave a Weight % chg ([5]; Samp RH 62.77%, 25.03° C., elapsed 0.1 min (start)) of 0.000%, a Weight % chg ([5]; Samp RH 64.94%, 25.04° C., elapsed 285.2 min (desorption)) of 0.406% and a Weight % chg ([5]; Samp RH 65.00%, 25.08° C., elapsed 219.7 min (sorption)) of 0.347%. The Weight % chg ([5]; Samp RH 75.01%, 25.05° C., elapsed 231.9 min (sorption)) was 0.406%, the Weight % chg ([5]; Samp RH 75.35%, 25.08° C., elapsed 274.2 min (desorption)) was 0.456% and the Weight % chg ([5]; Samp RH 84.92%, 25.09° C., elapsed 243.8 min (sorption)) was 0.466%. For the same compound, the Weight % chg ([5]; Samp RH 85.01%, 25.08° C., elapsed 265.2 min (desorption)) was 0.510%, the Weight % chg ([5]; Samp RH 94.67%, 25.08° C., elapsed 256.6 min (sorption)) was 0.563% and the “water content consistent with weight loss” value ([2]; from 2.4% weight loss) was 0.5 to 1.0 moles of water.

With `Cn1c(=O)cc(N2CCC[C@@H](N)C2)n(Cc2cc(F)ccc2C#N)c1=O.O=C(O)CCC(=O)O` [A + B] the “Final Form after slurry (XRPD)” value ([3]; THF:H2O 9:1, 13 days (approximate)) was “A + B”.

In the case of `Cn1c(=O)cc(N2CCC[C@@H](N)C2)n(Cc2ccccc2C#N)c1=O.O=C(O)CCC(=O)O` [Form A], the TGA weight loss ([1]; heated from 25° C. to 165° C.) was “insignificant weight loss”, the “stability at ambient conditions” value ([4]; ambient conditions, conclusion from characterization data) was “stable” and the “form by XRPD after relative humidity stressing” value ([4]; approximately 50% relative humidity, 29 days) was “Form A”. For the same compound, the “form by XRPD after relative humidity stressing” value ([4]; approximately 58% relative humidity, 29 days) was “did not exhibit form changes” and the “form by XRPD after relative humidity stressing” value ([4]; approximately 97% relative humidity, 29 days) was “did not exhibit form changes; also recorded: Form A”.
